Assay results reported in paper PMC11869560, “Anticancer and cancer preventive activities of shogaol and curcumin from Zingiberaceae family plants in KG-1a leukemic stem cells” (BMC Complementary Medicine and Therapies, 2025).

Experiments:
[1] = test system: NO production in LPS-activated RAW264.7 cells; test: NO production in LPS-activated RAW264.7 cells; type: cell-based, mouse; details: IC20 concentration, 2 h pre-treatment then 1 µg/mL LPS 24 h
Protocol: (§1) For the measurement of tumor necrosis factor-alpha (TNF-α) and NO, RAW264.7 cells were pre-treated with plant extracts and active compounds at a non-cytotoxic dose (IC20) (Table S9) or 1 µg/mL of dexamethasone (positive control) in a 24-well plate for 2 h. Subsequently, 1 µg/mL of lipopolysaccharide (LPS) (Cat No. 00497693, Invitrogen™, MA, USA) was added to each well, and the cells were incubated for an additional 24 h to allow sufficient time for the compounds to exert measurable anti-inflammatory effects while maintaining cell viability. Afterward, supernatants were collected, and the levels of TNF-α and NO were measured using the Mouse TNF alpha Uncoated ELISA Kit (Invitrogen™, ThermoFisher Scientific, MA, USA) and the Total Nitric Oxide Assay Kit (Invitrogen™, ThermoFisher Scientific, MA, USA), respectively, according to the manufacturer’s instructions.
(§2) The percentage of NO or cytokine inhibitions were calculated using the following equation: […]
(§3) where A is the level of cytokine or NO without treatment, and B is the level of cytokine or NO with treatment.

[2] = test system: TNF-α production in LPS-activated RAW264.7 cells; test: TNF-α production in LPS-activated RAW264.7 cells (ELISA); type: cell-based, mouse; details: IC20 concentration, 2 h pre-treatment then 1 µg/mL LPS 24 h
Protocol: as §1, §2, §3

[3] = test system: IL-2 production in PHA-activated PBMCs; test: IL-2 production in PHA-activated PBMCs (ELISA); type: cell-based, human; details: IC20 concentration, 2 h pre-treatment then 20 µL/mL PHA 24 h
Protocol: For the measurement of interleukin-2 (IL-2), human PBMCs were pre-treated with plant extracts and active compounds at the IC20 concentration (Table S9) or 1 µg/mL of dexamethasone (positive control) in a 24-well plate for 2 h. Subsequently, 20 µL/mL of phytohemagglutinin (PHA) (Cat. No. 10576015, Thermo Fisher Scientific, MA, USA) was added to each well, and the cells were incubated for an additional 24 h. After that, supernatants were collected, and the levels of IL-2 were measured by the Human IL-2 Uncoated ELISA Kit (Invitrogen™, ThermoFisher Scientific, MA, USA), according to the manufacturer’s instructions.
as §2, §3

KG-1a cells = test: Cell cycle and apoptosis (sub-G1) assay by flow cytometry in KG-1a cells; type: cell-based, human; details: 48 h; for change of cell cycle phase population compared to VC: IC20 concentrations; for G2/M phase population: IC50 concentrations
Protocol: After treating KG-1a cells with active compounds at various concentrations for 48 h, the cells were pulsed with 10 µM BrdU (Sigma-Aldrich, MA, USA) for 20 min at 37 °C in an incubator with 5% CO2. Subsequently, the cells were harvested, washed with ice-cold PBS, pH 7.4 three times, and then fixed with 70% ethanol in PBS, pH 7.4 at −30 °C. Following fixation, the cells were washed and resuspended in 2 N HCl/0.5% Triton X-100 for 30 min at room temperature (RT). Then, 0.1 M sodium tetraborate decahydrate was added for 2 min at RT to neutralize the acid. Subsequently, the cells were stained with FITC-anti-BrdU antibody for 30 min at RT. After washing, the cells were resuspended in propidium iodide (PI) (Dojindo, Kumamoto, Japan) in PBS, pH 7.4 at a ratio of 1:1,000. The cell cycle phases were detected using a flow cytometer (CytoFLEX S, Beckman Coulter, CA, USA) and analyzed with the CytExpert program (Beckman Coulter, CA, USA).
The flow cytometry data were analyzed to assess both apoptosis and cell cycle distribution. Apoptosis was evaluated by determining the percentage of cells in the sub-G1 phase using the Nicoletti assay. For cell cycle analysis, populations in the G1, S, and G2/M phases were calculated after excluding the sub-G1 population to avoid interference from apoptotic cells, allowing for a clearer assessment of cell cycle arrest in different phases. Data were presented in separate graphs for the sub-G1 population and cell cycle phase distributions.

[4] = IC20 concentration (nocodazole 6 ng/mL, curcumin 3 µg/mL, shogaol 0.12 µg/mL)
[5] = higher concentrations than IC20

CCCCC/C=C/C(=O)CCc1ccc(O)c(OC)c1 [Shogaol, shogaol]
inhibition of NO release [1]: 46.46 ± 3.71%
inhibition of TNF-α release [2]: 24.41 ± 0.99%
inhibition of IL-2 release [3]: 80.04 ± 4.82%
decrease of S phase population (KG-1a cells; 1.5 µg/mL, sub-G1 excluded): 40.56 ± 3.82%
effect on sub-G1 population compared to VC (KG-1a cells; [4]): did not significantly increase the sub-G1 population
change of cell cycle phase population compared to VC (KG-1a cells): neither curcumin nor shogaol induced significant changes in the cell cycle phase population
G2/M phase population (KG-1a cells; sub-G1 excluded): 31.38 ± 1.60%
effect on sub-G1 population compared to VC (KG-1a cells; [5]): significant increases in the sub-G1 population

COc1cc(/C=C/C(=O)CC(=O)/C=C/c2ccc(O)c(OC)c2)ccc1O [Curcumin, curcumin]
effect on sub-G1 population compared to VC (KG-1a cells; [4]): did not significantly increase the sub-G1 population
change of cell cycle phase population compared to VC (KG-1a cells): neither curcumin nor shogaol induced significant changes in the cell cycle phase population
G2/M phase population (KG-1a cells; sub-G1 excluded): 43.66 ± 6.75%
effect on sub-G1 population compared to VC (KG-1a cells; [5]): significant increases in the sub-G1 population
